Legend:
[1] = background statement; cited from earlier work
UGT1A7 = target: T1, UGT1A7 (Homo sapiens, UniProt Q9HAW7); conditions: stated as known; cited from earlier work
T1 construct: expressed in transfected cells; host or cells: HEK293
T1 sequence (Q9HAW7 26-530): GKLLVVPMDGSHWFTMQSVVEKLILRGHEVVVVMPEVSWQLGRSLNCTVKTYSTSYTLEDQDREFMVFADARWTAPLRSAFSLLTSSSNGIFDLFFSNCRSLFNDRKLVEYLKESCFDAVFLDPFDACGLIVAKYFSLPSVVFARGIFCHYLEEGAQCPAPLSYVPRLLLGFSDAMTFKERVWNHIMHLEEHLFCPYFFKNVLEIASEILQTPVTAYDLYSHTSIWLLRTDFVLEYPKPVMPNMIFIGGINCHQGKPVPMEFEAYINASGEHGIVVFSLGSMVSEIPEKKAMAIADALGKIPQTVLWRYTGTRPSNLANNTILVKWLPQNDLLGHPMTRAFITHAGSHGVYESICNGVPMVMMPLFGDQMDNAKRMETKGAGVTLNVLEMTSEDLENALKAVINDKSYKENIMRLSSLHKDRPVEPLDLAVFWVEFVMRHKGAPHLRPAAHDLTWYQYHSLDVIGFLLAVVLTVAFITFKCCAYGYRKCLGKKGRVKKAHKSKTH

[2] = tested on: patients with metastatic colorectal cancer; conditions: human, in vivo
Protocol: The aim of this study was to assess adverse events, dose reductions and clinical outcome. In both treatment arms 80 mg/m^2 of CPT-11 were administered intravenously over 30 minutes on day 1, 8, 15, 22, 29 and 36 and the cycle repeated after day 50. In arm A of the FIRE study FA (500 mg/m^2, 120 min. infusion) and 5-FU (2000 mg/m^2, 24 h infusion) were co-administered on days 1, 8, 15, 22, 29, 36, and in arm B oxaliplatin (85 mg/m^2, 120 min infusion) were co-administered on day 1, 15 and 29. At the beginning of each treatment cycle adverse events and clinical symptoms were documented. Patients with known Gilbert's disease were excluded from this study. The following adverse events were analyzed: diarrhea within 24 h and later than 24 after administration of CPT-11, loss of body weight more than 5%, anemia, thrombocytopenia, and leukopenia. The intensity of adverse events was classified according to the WHO-Adverse Reaction Terminology with scores from “0”—“no adverse events” to 4—“life-threatening adverse events”. If the CPT-11 dose had to be reduced to less than 80%, dose reduction was documented at each cycle. Genomic DNA from full blood of all patients was isolated as described before and genotyped after written informed consent was obtained. The study was approved by the local ethics committees.
All genotyping studies were performed in a blinded fashion without prior knowledge of the clinical data of the analyzed patient. Approximately 10 ng of genomic DNA were used as a template in Taqman 5′-nuclease assays. Primers and probes specific for each SNP were designed with Primer Express Software (Applied Biosystems) and labelled with either 6-FAM or VIC as reporter dyes and MGB-NFQ (Applied Biosystems) as a quencher as described in Lankisch et al., Mol. Pharmacol, 2005, 67(5); 1732-1739. The Taqman assays were performed using 600 nM primer concentrations and 200 nM probe concentrations (Applied Biosystems) and qPCR Mastermix Plus (Eurogentec, Seraing, Belgium). The run consisted of a hot start at 95° C. for 10 minutes and 35 cycles of 94° C. for 15 sec. and 61° C. for 1 min. All assays were performed in 25 μl reactions in 96-well trays using an ABI 7000 instrument (Applied Biosystems). UGT1A1*28 was determined by Oncoscreen, Jena, Germany.
Patients were classified according to the number of SNPs determined at the UGT1A1*28, UGT1A7 −57 T/G and UGT1A7 N129K/R131K gene loci. In the absence of allelic variants patients were classified as “low risk”, whereas high risk patients were defined if at least one allele of the allelic variant of each analyzed gene locus was present. If only one or two allelic variants were detected at the UGT1A1 or UGT1A7 gene locus, patients were classified as “intermediate risk”. […] Frequency and intensity of the adverse events were compared between the risk groups defined above by Cochran-Mantel-Haenszel statistics using modified ridit scores. The risk groups were also compared by multivariant analysis (non-parametric Weil-Lachin procedure) for differences in intensity of 5 adverse events simultaneously. […] This test leads to values between 0 and 1 with 0.5 characterizing equal chances, which would indicate no difference in the comparison of these patients. The analysis of incidence and intensity of adverse events was based on the documented 297 treatment cycles involving all 105 patients. The Chi-Square test was used for statistical analysis of CPT-11 dose reductions. P-values were not adjusted for multiple testing. All statistical analyses were calculated by an independent statistician who was not involved in patient treatment or genotyping (Estimate GmbH, Augsburg, Germany).

Leukopenia WHO Grade 1, % [2] [%]	Leukopenia WHO Grade 1, n treatment cycles [2]	Thrombocytopenia WHO Grade 2, % [2] [%]	Thrombocytopenia WHO Grade 2, n treatment cycles [2]	Thrombocytopenia WHO Grade 3, % [2] [%]	Thrombocytopenia WHO Grade 3, n treatment cycles [2]	diarrhea <24 h WHO Grade 3, % of treatment cycles [2]	diarrhea <24 h WHO Grade 3, N treatment cycles [2]	leukopenia WHO Grade 4, % of treatment cycles [2] [%]	leukopenia WHO Grade 4, N treatment cycles [2]	thrombocytopenia WHO Grade 2, % of treatment cycles [2] [%]	thrombocytopenia WHO Grade 2, N treatment cycles [2]	thrombocytopenia WHO Grade 3, % of treatment cycles [2]	thrombocytopenia WHO Grade 3, N treatment cycles [2]	Leukopenia WHO Grade 4, % ([2]; 50 days (one treatment cycle)) [%]	Leukopenia WHO Grade 4, n treatment cycles ([2]; 50 days (one treatment cycle))	Structure (SMILES)	activity higher than irinotecan [1]	specific activity of UGT1A7 with SN-38 compared with UGT1A1 (UGT1A7)	overall incidence of adverse events, Mann Whitney test ([2]; 50 days)
																CCc1c2c(nc3ccc(O)cc13)-c1cc3c(c(=O)n1C2)COC(=O)[C@]3(O)CC [SN-38, 7-ethyl-10-hydroxycamptothecin]	100-1000 fold	five-hold higher	
21	10	3	5	1	1	1 (1%)	1 (1%)	1	2	3	5	1 (1%)	1 (1%)	1	2	CCc1c2c(nc3ccc(OC(=O)N4CCC(N5CCCCC5)CC4)cc13)-c1cc3c(c(=O)n1C2)COC(=O)[C@]3(O)CC [irinotecan]			0.5511
